Experimental data from PubChem BioAssay (NCI).
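48-hour exposure; five concentrations; linearly interpolated endpoints. At the GI50, growth is halved. TGI: concentration producing complete growth inhibition.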

Legend:
Test in all cases: NCI tumour cell line growth inhibition, 48 h
786-0 renal = test system: 786-0 renal
A498 renal = test system: A498 renal
A549 NSCLC = test system: A549 NSCLC
ACHN renal = test system: ACHN renal
BT-549 breast = test system: BT-549 breast
CAKI-1 renal = test system: CAKI-1 renal
CCRF-CEM leukemia = test system: CCRF-CEM leukemia
COLO 205 colon = test system: COLO 205 colon
DLD-1 colon = test system: DLD-1 colon
DMS 114 small cell lung = test system: DMS 114 small cell lung
DMS 273 small cell lung = test system: DMS 273 small cell lung
DU-145 prostate = test system: DU-145 prostate
EKVX NSCLC = test system: EKVX NSCLC
HCC-2998 colon = test system: HCC-2998 colon
HCT-116 colon = test system: HCT-116 colon
HCT-15 colon = test system: HCT-15 colon
HL-60(TB) leukemia = test system: HL-60(TB) leukemia
HOP-18 NSCLC = test system: HOP-18 NSCLC
HOP-62 NSCLC = test system: HOP-62 NSCLC
HOP-92 NSCLC = test system: HOP-92 NSCLC
HS 578T breast = test system: HS 578T breast
HT29 colon = test system: HT29 colon
IGROV1 ovarian = test system: IGROV1 ovarian
K-562 leukemia = test system: K-562 leukemia
KM12 colon = test system: KM12 colon
KM20L2 colon = test system: KM20L2 colon
LOX IMVI melanoma = test system: LOX IMVI melanoma
M14 melanoma = test system: M14 melanoma
M19-MEL melanoma = test system: M19-MEL melanoma
MALME-3M melanoma = test system: MALME-3M melanoma
MCF7 breast = test system: MCF7 breast
MDA-MB-231 breast = test system: MDA-MB-231 breast
MDA-N = test system: MDA-N
MOLT-4 leukemia = test system: MOLT-4 leukemia
NCI-H226 lung = test system: NCI-H226 lung
NCI-H23 lung = test system: NCI-H23 lung
NCI-H460 lung = test system: NCI-H460 lung
NCI-H522 lung = test system: NCI-H522 lung
NCI/ADR-RES ovarian = test system: NCI/ADR-RES ovarian
OVCAR-3 ovarian = test system: OVCAR-3 ovarian
OVCAR-4 ovarian = test system: OVCAR-4 ovarian
OVCAR-5 ovarian = test system: OVCAR-5 ovarian
OVCAR-8 ovarian = test system: OVCAR-8 ovarian
P388 leukemia = test system: P388 leukemia
P388/ADR leukemia = test system: P388/ADR leukemia
PC-3 prostate = test system: PC-3 prostate
RPMI-8226 leukemia = test system: RPMI-8226 leukemia
RXF 393 renal = test system: RXF 393 renal
SF-268 CNS = test system: SF-268 CNS
SF-295 CNS = test system: SF-295 CNS
SF-539 CNS = test system: SF-539 CNS
SK-MEL-2 melanoma = test system: SK-MEL-2 melanoma
SK-MEL-28 melanoma = test system: SK-MEL-28 melanoma
SK-MEL-5 melanoma = test system: SK-MEL-5 melanoma
SK-OV-3 ovarian = test system: SK-OV-3 ovarian
SN12C renal = test system: SN12C renal
SN12K1 renal = test system: SN12K1 renal
SNB-19 CNS = test system: SNB-19 CNS
SNB-75 CNS = test system: SNB-75 CNS
SNB-78 CNS = test system: SNB-78 CNS
SR leukemia = test system: SR leukemia
SW-620 colon = test system: SW-620 colon
T-47D breast = test system: T-47D breast
TK-10 renal = test system: TK-10 renal
U251 CNS = test system: U251 CNS
UACC-257 melanoma = test system: UACC-257 melanoma
UACC-62 melanoma = test system: UACC-62 melanoma
UO-31 renal = test system: UO-31 renal
XF 498 CNS = test system: XF 498 CNS

C=C1C(C)C2C(Cc3ccccc3)NC(=O)C23C(OC(C)=O)/C=C/C(C)(O)CC(C)C/C=C/C3C1O (stereo not given)
TGI (786-0 renal): > 100 µM | TGI (A498 renal): 1.15 µM | TGI (A549 NSCLC): > 100 µM | TGI (ACHN renal): > 100 µM | TGI (BT-549 breast): > 47.3 µM | TGI (CAKI-1 renal): 3.08 µM | TGI (CCRF-CEM leukemia): 85 µM | TGI (COLO 205 colon): > 100 µM | TGI (DLD-1 colon): > 100 µM | TGI (DMS 114 small cell lung): > 100 µM | TGI (DMS 273 small cell lung): > 82 µM | TGI (DU-145 prostate): > 100 µM | TGI (EKVX NSCLC): > 96.7 µM | TGI (HCC-2998 colon): > 100 µM | TGI (HCT-116 colon): > 100 µM | TGI (HCT-15 colon): > 100 µM | TGI (HL-60(TB) leukemia): 36 µM | TGI (HOP-18 NSCLC): 0.814 µM | TGI (HOP-62 NSCLC): 3.08 µM | TGI (HOP-92 NSCLC): 1.01 µM | TGI (HS 578T breast): 0.62 µM | TGI (HT29 colon): > 100 µM | TGI (IGROV1 ovarian): 48.2 µM | TGI (K-562 leukemia): > 100 µM | TGI (KM12 colon): > 100 µM | TGI (KM20L2 colon): > 100 µM | TGI (LOX IMVI melanoma): 19.2 µM | TGI (M14 melanoma): > 100 µM | TGI (M19-MEL melanoma): > 100 µM | TGI (MALME-3M melanoma): > 94.4 µM | TGI (MCF7 breast): > 94.5 µM | TGI (MDA-MB-231 breast): > 100 µM | TGI (MDA-N): > 100 µM | TGI (MOLT-4 leukemia): 77.2 µM | TGI (NCI-H226 lung): 42.3 µM | TGI (NCI-H23 lung): 91.6 µM | TGI (NCI-H460 lung): > 95.2 µM | TGI (NCI-H522 lung): 45.1 µM | TGI (NCI/ADR-RES ovarian): > 100 µM | TGI (OVCAR-3 ovarian): > 100 µM | TGI (OVCAR-4 ovarian): 82.9 µM | TGI (OVCAR-5 ovarian): > 100 µM | TGI (OVCAR-8 ovarian): > 100 µM | TGI (P388 leukemia): 41.3 µM | TGI (P388/ADR leukemia): 33.5 µM | GI50 (PC-3 prostate): 15.8 µM | TGI (PC-3 prostate): > 100 µM | TGI (RPMI-8226 leukemia): 71.2 µM | TGI (RXF 393 renal): 2.97 µM | TGI (SF-268 CNS): 41.2 µM | TGI (SF-295 CNS): 33.2 µM | TGI (SF-539 CNS): 13 µM | TGI (SK-MEL-2 melanoma): 76.5 µM | TGI (SK-MEL-28 melanoma): > 97.7 µM | TGI (SK-MEL-5 melanoma): 35.6 µM | TGI (SK-OV-3 ovarian): 46.6 µM | TGI (SN12C renal): > 100 µM | TGI (SN12K1 renal): 37.1 µM | TGI (SNB-19 CNS): 20.7 µM | TGI (SNB-75 CNS): 0.0862 µM | TGI (SNB-78 CNS): 1.3 µM | TGI (SR leukemia): > 59.9 µM | TGI (SW-620 colon): > 100 µM | TGI (T-47D breast): > 100 µM | TGI (TK-10 renal): > 54.5 µM | TGI (U251 CNS): 18.4 µM | TGI (UACC-257 melanoma): 86.5 µM | TGI (UACC-62 melanoma): > 91.8 µM | TGI (UO-31 renal): 1.1 µM | TGI (XF 498 CNS): 8.29 µM
